Results: publication PMC8995209 (Cell, 2022)

Molecular target: iaaH (Agrobacterium tumefaciens, UniProt P0A2X2)
Type: cell-based
Conditions: hydrolysis to NAA; 48 h conditioning

Chain of iaaH (P0A2X2 whole entry): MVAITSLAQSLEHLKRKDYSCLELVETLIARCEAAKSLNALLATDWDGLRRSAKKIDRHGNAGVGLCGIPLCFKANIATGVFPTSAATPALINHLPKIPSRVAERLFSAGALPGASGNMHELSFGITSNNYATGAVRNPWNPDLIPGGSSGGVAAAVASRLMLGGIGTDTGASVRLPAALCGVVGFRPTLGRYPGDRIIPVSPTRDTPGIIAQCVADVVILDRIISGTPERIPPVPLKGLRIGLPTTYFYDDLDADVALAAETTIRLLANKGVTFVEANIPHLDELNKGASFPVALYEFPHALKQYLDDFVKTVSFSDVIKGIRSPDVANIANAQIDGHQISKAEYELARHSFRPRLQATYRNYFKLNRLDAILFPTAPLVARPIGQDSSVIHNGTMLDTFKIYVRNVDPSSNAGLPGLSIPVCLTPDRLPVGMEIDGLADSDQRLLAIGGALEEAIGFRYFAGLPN

## NC(=O)Cc1cccc2ccccc12 [NAM, 1-naphthaleneacetamide]
  conditioned medium of iaaH-expressing CHO-K1 cells, auxin read out by Receiver c: also able to produce the auxin NAA
